Data on six compounds can be found in patent publication US20110283604A1, “BIODEGRADATION OF RENEWABLE HYDROCARBON FUEL BLENDS” (BUTAMAX(TM) ADVANCED BIOFUELS LLC, priority 2010, published 2011).

The test system of data set [1] is soil-groundwater slurries. In words: Aerobic microcosm biodegradation of BTEX, isobutanol and ethanol. Here is the method: Soil and groundwater for laboratory microcosm testing were collected from within Site 60 at Vandenberg Air Force Base, CA. The site has a history of gasoline contamination, but has undergone an extensive cleanup program. Collected groundwater was containerized in sterile stainless steel soda kegs (18.5 L) under nitrogen headspace. […] The core samples in acetate sleeves were capped and sealed in the field to minimize exposure to air, shipped overnight on ice to the laboratory, and stored at 4° C.
Soil was removed from the acetate sleeves in an anaerobic chamber (Coy Laboratory Products, Inc., Grass Lake, Mich.) and the first 10 cm of the core ends that may have been exposed to oxygen were discarded. Collected soil consisted of silty sand with some gravel and larger stones. The soil was passed through a 0.95 cm sieve, homogenized, and then stored in amber glass jars with Teflon®-lined caps at 4° C. until microcosm setup was complete. (NA=Not Analyzed; * SVOC (semi volatile organic compound) detections include 0.008 mg L^−1 phenol and 0.003 mg L^−1 bis(2-ethylhexyl) phthalate; ** standard units).
Final transformation products were not determined. For comparison, one treatment was prepared using ethanol instead of isobutanol. […] Controls were amended with mercuric chloride and formaldehyde. BTEX and alcohol concentrations were selected to represent (approximately) potential groundwater concentrations that would be observed within a source area and in the near downgradient plume. The greater ethanol concentrations relative to the isobutanol concentrations used in this study were intended to reflect effective solubilities of isobutanol and ethanol in groundwater. […] The SET 1 treatments were prepared within 4 days of sample collection whereas SET 2 treatments were prepared after approximately 2 months of soil and groundwater storage.
Microcosms were prepared by placing 40 g of site soil into each of 54 glass serum bottles (approximate volume 160 mL each). BTEX and alcohol (isobutanol or ethanol) were added to the treatment bottles to attain the target concentrations shown in Tables 2A and B. Bottles were filled with groundwater so as to leave 10 mL of headspace. Controls were amended with mercuric chloride (700 mg/L in bottles) to inhibit microbial activity. Controls were subsequently amended with formaldehyde (1% v/v in bottles) after 4 days to limit microbial activity. Treatments were prepared with a minimum of 3 and up to 8 replicates each.
The prepared microcosms were incubated at 15° C. on a rotary shaker operating at 100 rpm. Headspace in each of the bottles was monitored for BTEX and oxygen. Aqueous BTEX concentrations were calculated by applying Henry's Law. Samples of the aqueous phase were analyzed for isobutanol and ethanol, as well as potential isobutanol degradation products (iso-butylaldehyde and iso-butyric acid). The headspace of each bottle was periodically flushed with oxygen gas to maintain aerobic conditions in the bottles. The headspace of each control bottle also was flushed with oxygen to evaluate potential losses of BTEX due to the flushing process.
Headspace gases were analyzed for BTEX by using a Varian CP-3900 gas chromatograph equipped with an FID and a Restek QSPLOT column (30 m length, 0.32 mm diameter) with an injector temperature of 260° C. and a detector temperature of 290° C. Headspace oxygen was analyzed by using a Varian CP-3800 gas chromatograph equipped with a Pulsed Discharge Helium Ionization Detector (PDHID) and both a CP-Molsiene 5A column and a CP-ParaBond Q column (both 10 m length, 0.32 mm diameter), an injector temperature of 210° C., and a detector temperature of 240° C. […] Aqueous alcohol concentrations (as well as iso-butylaldehyde and iso-butyric acid) were measured by first collecting a 130 μL subsample preserved with mercuric chloride.

Data set [2] can be described thus: Water tolerance and phase separation tests on isobutanol-ethanol-gasoline blends. The data set is classed as physicochemical. Particulars: E10 gasoline. Here is the method: Scoping water tolerance and phase separation tests were conducted on isobutanol-ethanol-gasoline blends at 65° F. […] Concentrations in both the hydrocarbon and aqueous phase were determined by GC.

Where [3] appears, read: Treatment 1 (Low BTEX), aerobic, 15° C.
The mark [4] stands for this setting: Treatment 2 (High BTEX), aerobic.
[5] abbreviates: Treatment 3 (Low BTEX + IBA 68 μM), aerobic.
The mark [6] stands for this setting: Treatment 4 (High BTEX + IBA 3,400 μM), SET 1, aerobic.
Setting [7] is: Treatment 5 (High BTEX + IBA 3,400 μM), SET 2, aerobic.
The mark [8] stands for this setting: Treatment 6 (High BTEX + Ethanol 11,000 μM), aerobic.
[9] abbreviates: higher concentration treatments, aerobic (isobutanol: data of Treatments 4 and 5; ethanol treatment).

As for `c1ccccc1` [Benzene, benzene], the Lag in data set [1] (setting [3]) amounted to 0 days; in data set [1] (setting [4]) it was 6 days; in data set [1] (setting [5]) it was 0 days; in data set [1] (setting [6]), 1 days; in data set [1] (setting [7]) it was 1 days; in data set [1] (setting [8]), 1 days.

For `CCc1ccccc1` [Ethylbenzene, ethylbenzene], the Lag in data set [1] (setting [3]) was 2 days; in data set [1] (setting [4]) it was 5 days; in data set [1] (setting [5]), 1 days; in data set [1] (setting [6]), 0 days; in data set [1] (setting [7]), 1 days; in data set [1] (setting [8]) it was 1 days.

In the case of `Cc1ccccc1` [Toluene, toluene], the Lag worked out at 0 days in data set [1] (setting [3]); 5 days in data set [1] (setting [4]); 0 days in data set [1] (setting [5]); 5 days in data set [1] (setting [6]); 1 days in data set [1] (setting [7]); 1 days in data set [1] (setting [8]).

Consider `CCO` [ethanol, reference compound], for which the “observed first-order biodegradation rate constant” value in data set [1] (setting [9]) was 0.074 ± 0.0023 day⁻¹.

`CC(C)CO` [isobutanol]: in data set [2] (1.3% and 2.6% water, FIG. 11), the “effect of increased levels on aqueous phase volume during phase separation” value was “reduced aqueous phase volume”. Besides, the “effect on amount of ethanol extracted into the aqueous phase” value in data set [2] (FIG. 12) is “acts as a co-solvent for ethanol”. In data set [1] (Treatment 3 vs higher concentration treatments, aerobic), the “rate constant in lower concentration treatment relative to isobutanol or ethanol in higher concentration treatments” value is listed as “approximately 3.5 times”. Besides, the “observed first-order biodegradation rate constant” value turned out to be 0.081 ± 0.0044 day⁻¹ in data set [1] (setting [9]) and 0.28 ± 0.054 day⁻¹ in data set [1] (lower concentration treatment (Treatment 3), aerobic).

With total xylenes, the Lag is on record as 2 days in data set [1] (setting [3]); 0 days in data set [1] (setting [4]); 1 days in data set [1] (setting [5]); 0 days in data set [1] (setting [6]); 1 days in data set [1] (setting [7]); 1 days in data set [1] (setting [8]).
